Earlier results on three molecules are cited in US20200046643A1, “EXTENDED RELEASE FORMULATIONS OF CANNABINOIDS” (Glatt GmbH, priority 2018, published 2020).

The conditions of data set [1]: after oral administration.

`CCCCCc1cc(O)c2c(c1)OC(C)(C)[C@@H]1CCC(C)=C[C@@H]21` [THC, Δ9-tetrahydrocannabinol]: in data set [1], the duration of action is 2 to 4 h, the “duration of appetite-increasing action” value was “up to 24 hours” and the “duration of psychoactive action” value is 4 to 6 h.
For `C=C(C)[C@@H]1CCC(C)=C[C@H]1c1c(O)cc(CCCCC)cc1O` [CBD, cannabidiol], the solubility in water entry was “insoluble in water”. Also, the “solubility in organic solvents” value (organic solvents) is given as “soluble in organic solvents”.
As for `CCCCCc1cc(O)c2c(c1)OC(C)(C)[C@@H]1CCC(C)=C[C@@H]21` [dronabinol], the solubility in water result was “insoluble in water”.
